According to patent publication US20050187389A1, “Pyrrolopyrimidine derivatives and analogs and their use in the treatment and prevention of diseases” (Ambit Biosciences Corporation, priority 2004, published 2005):

How the values were obtained:
ABL1 = biological target: T1, ABL1 (Homo sapiens, UniProt P00519); test: ABL1 (DKIN) phage-display competitive binding assay
T1 construct: made in house
T1 sequence (P00519 242-493 limits assumed): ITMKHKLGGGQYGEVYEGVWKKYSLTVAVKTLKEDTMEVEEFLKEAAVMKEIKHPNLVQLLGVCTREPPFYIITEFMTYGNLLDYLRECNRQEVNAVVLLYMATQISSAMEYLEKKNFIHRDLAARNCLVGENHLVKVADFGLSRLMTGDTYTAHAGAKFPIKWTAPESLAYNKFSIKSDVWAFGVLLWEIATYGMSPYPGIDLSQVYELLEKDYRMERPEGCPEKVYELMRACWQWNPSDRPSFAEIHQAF
From the text: (§1) Methods for measuring binding affinities for interactions between small molecules and kinases including FLT3, c-KIT, ABL(T334I) [a.k.a. ABL(T315I)], VEGFR-2 (a.k.a. KDR), and EGFR are described in detail in U.S. application Ser. No. 10/873,835, which is incorporated by reference herein in its entirety. The components of the assays include human kinases expressed as fusions to T7 bacteriophage particles and immobilized ligands that bind to the ATP site of the kinases. […] If the test compound binds the kinase it competes with the immobilized ligand and prevents binding to the solid support. […] The results are read out by quantitating the amount of fusion protein bound to the solid support, which is accomplished by either traditional phage plaque assays or by quantitative PCR (qPCR) using the phage genome as a template. […] The concentration of test molecule that reduces the number of phage bound to the solid support by 50% is equal to the Kd for the interaction between the kinase and the test molecule. Typically, data are collected for twelve concentrations of test compound and, the resultant binding curve is fit to a non-cooperative binding isotherm to calculate Kd.
(§2) Described in the exemplary assays below is data from binding with varying kinases. […] The term “ND” represents non-determined values.

PDGFR-β = biological target: T2, PDGFR-β (Homo sapiens, UniProt P09619); test: PDGFR-β (DKIN) phage-display competitive binding assay
T2 construct: Kd for PDGFR-β (DKIN); made in house
T2 sequence (P09619 600-962 limits assumed): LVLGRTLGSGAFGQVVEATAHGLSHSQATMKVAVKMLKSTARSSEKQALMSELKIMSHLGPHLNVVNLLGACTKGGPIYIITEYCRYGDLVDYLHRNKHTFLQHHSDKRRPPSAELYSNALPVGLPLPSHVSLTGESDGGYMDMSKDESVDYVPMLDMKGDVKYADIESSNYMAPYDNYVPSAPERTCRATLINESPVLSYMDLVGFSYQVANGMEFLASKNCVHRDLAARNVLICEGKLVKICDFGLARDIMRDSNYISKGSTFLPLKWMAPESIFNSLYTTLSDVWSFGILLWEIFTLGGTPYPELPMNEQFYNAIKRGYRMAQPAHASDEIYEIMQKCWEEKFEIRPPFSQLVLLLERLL
From the text: as §1, §2
Kd values for the interactions between PDGFR-β and candidate small molecule ligands were measured by a phage-display-based competitive binding assay that is described in detail in U.S. Ser. No. 10/406,797 filed 2 Apr. 2003 and incorporated herein by reference. Briefly, T7 phage displaying human PDGFR-β were incubated with an affinity matrix coated with known PDGFR-β inhibitor in the presence of various concentrations of the soluble competitor molecules. […] The Kd for the interaction between the soluble competitor molecule and PDGFR-β is equal to the concentration of soluble competitor molecule that causes a 50% reduction in the number of phage recovered in the eluate compared to a control sample lacking soluble competitor. Since this assay is generic, and any molecule can be used as a soluble competitor, we have determined Kd values for the interaction between PDGFR-β and several small molecules, including those shown below.

FLT3 = biological target: T3, FLT3 (Homo sapiens, UniProt P36888); test: FLT3 (DKIN) phage-display competitive binding assay
T3 construct: made in house
T3 sequence (P36888 610-943 limits assumed): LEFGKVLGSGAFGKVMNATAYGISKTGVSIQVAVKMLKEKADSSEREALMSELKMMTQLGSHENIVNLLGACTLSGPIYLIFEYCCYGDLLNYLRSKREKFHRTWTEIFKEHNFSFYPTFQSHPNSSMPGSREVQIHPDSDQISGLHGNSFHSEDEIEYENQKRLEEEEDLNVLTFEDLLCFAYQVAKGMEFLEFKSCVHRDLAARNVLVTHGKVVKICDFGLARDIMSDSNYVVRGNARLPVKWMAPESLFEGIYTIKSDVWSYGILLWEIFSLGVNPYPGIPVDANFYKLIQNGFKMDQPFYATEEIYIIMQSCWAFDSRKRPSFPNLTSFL
From the text: as §1, §2

MV4,11 cells [1] = test: (MV 4,11) Cell Proliferation Assay with 0.5% Serum "CS0001"; format: cell-based; conditions: Homo sapiens
Procedure: (§3) The ability of FLT3 kinase inhibitors to inhibit cellular proliferation was also examined. MV4:11 was a cell line derived from a patient with acute myelogenous leukemia. It expressed a mutant FLT3 protein that was constitutively active. […] Inhibition of FLT3 kinase activity prevented proliferation of these cells, and thus the MV4:11 cell line can be used a model for cellular activity of small molecule inhibitors of FLT3.
(§4) FLT3 Assay using MV4,11 Cells
(§5) MV4,11 cells were grown in an incubator @ 37° C. in 5% CO2 in Medium 2 (RPMI, 10% FBS, 4 mM glutamine, Penn/Strep). The cells were counted daily and the cell density was kept between 1e5 and 8e5 cells/ml.
Day One: Enough cells were harvested for experiments to be conducted in 50 ml conical tubes. The harvested cells were spun at 500 g for 5 min at 4° C., the supernatant was then aspirated and the cells were resuspended in the starting volume of 1× PBS. The cells were again spun at 500 g for 5 min at 4° C. and the supernatant again aspirated. […]
(§6) Day Two: The cells were counted and enough medium 3 was added to decrease density to 2e5 cells/ml. 50 ul (10,000 cells) was aliquoted into each well of a 96 well optical plate using multichannel pipetman. […]

VEGFR-2 = biological target: T4, VEGFR-2 (Homo sapiens, UniProt P35968); test: VEGFR-2 phage-display competitive binding assay
T4 construct: made in house
T4 sequence (P35968 20-1356): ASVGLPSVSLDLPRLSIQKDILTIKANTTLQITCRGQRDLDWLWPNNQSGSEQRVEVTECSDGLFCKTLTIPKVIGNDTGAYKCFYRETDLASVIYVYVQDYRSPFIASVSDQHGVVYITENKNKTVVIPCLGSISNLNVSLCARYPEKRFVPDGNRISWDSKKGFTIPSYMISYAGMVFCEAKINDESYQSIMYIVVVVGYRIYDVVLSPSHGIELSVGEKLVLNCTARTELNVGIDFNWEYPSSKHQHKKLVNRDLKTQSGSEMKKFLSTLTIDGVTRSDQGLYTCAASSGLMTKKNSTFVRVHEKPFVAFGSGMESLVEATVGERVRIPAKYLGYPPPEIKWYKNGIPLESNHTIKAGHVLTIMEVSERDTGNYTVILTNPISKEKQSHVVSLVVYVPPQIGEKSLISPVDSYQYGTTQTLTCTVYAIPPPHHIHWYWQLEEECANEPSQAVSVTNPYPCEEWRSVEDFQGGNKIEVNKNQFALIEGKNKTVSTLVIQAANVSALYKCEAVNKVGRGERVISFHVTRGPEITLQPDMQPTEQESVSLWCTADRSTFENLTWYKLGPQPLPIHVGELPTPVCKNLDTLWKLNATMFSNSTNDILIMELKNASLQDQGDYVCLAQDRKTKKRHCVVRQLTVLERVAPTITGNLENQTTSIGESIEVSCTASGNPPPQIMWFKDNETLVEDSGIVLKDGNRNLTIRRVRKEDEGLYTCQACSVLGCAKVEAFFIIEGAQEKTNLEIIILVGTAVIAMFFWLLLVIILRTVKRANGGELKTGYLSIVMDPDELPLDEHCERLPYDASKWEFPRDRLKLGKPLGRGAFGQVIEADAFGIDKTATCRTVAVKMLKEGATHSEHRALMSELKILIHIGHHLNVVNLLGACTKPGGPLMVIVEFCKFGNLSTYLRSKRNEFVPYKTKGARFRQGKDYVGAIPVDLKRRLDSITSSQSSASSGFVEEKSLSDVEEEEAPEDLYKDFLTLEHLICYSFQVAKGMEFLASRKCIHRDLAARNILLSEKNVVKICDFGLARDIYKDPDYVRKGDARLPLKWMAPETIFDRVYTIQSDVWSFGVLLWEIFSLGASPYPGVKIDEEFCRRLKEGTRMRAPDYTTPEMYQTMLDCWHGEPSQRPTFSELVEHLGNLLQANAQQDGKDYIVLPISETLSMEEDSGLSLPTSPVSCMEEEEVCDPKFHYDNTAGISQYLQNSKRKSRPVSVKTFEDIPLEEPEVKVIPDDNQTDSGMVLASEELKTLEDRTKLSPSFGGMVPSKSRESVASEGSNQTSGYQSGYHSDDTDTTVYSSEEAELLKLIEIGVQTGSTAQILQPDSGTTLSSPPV
From the text: as §1, §2

MV4,11 cells [2] = test: FLT-3 cell assay, (MV 4,11) cell proliferation assay with 10% serum "CS0005"; format: cell-based, human
Procedure: as §3, §4, §5
Day One: Enough cells were harvested for experiments to be conducted in 50 ml conical tubes. The harvested cells were spun at 500 g for 5 min at 4° C., the supernatant was then aspirated and the cells were resuspended in the starting volume of 1× PBS. The cells were again spun at 500 g for 5 min at 4° C. and the supernatant again aspirated. The cells were then resuspended in medium 3 (DMEM w/glut, 10% FBS, Penn/Strep) to a density of 4e^5 cells/ml and incubated @ 37° C. in 5% CO2 O/N.
as §6

SMILES	Kd (PDGFR-β)	further results
COc1ccc(-c2cc3c(N[C@@H](C)c4ccccc4)ncnc3n2C(C)C)cc1 [Compound D10]	–	Kd (ABL1): 1000 to 10000 nM
COc1cccc(-c2cc3c(Nc4cccc(O)c4)ncnc3[nH]2)c1 [Compound S16]	1000 to 10000 nM	Kd (ABL1): 100 to 1000 nM; Kd (FLT3): 100 to 1000 nM
Cn1c(-c2ccc(O)cc2)cc2c(Nc3ccccc3Cl)ncnc21 [Compound Q3]	100 to 1000 nM	–
COc1ccc(-c2cc3c(Nc4ccc(F)c(Cl)c4)ncnc3[nH]2)cc1 [Compound S7]	> 10000 nM	–
COC(=O)C(Nc1ncnc2[nH]c(-c3ccc(OC)cc3)cc12)c1ccccc1 (stereo not shown) [Compound I7]	100 to 1000 nM	–
Cc1cc(C)cc(Nc2ncnc3[nH]c(-c4ccc(Br)cc4)cc23)c1 [Compound S39]	–	Kd (FLT3): > 10000 nM; IC50 (MV4,11 cells [1]): 100 to 1000 nM
COc1ccc(-c2cc3c(N[C@H](C)c4ccccc4)nc(N[C@@H](C)c4ccccc4)nc3[nH]2)cc1 [Compound M22]	100 to 1000 nM	–
COc1cccc(-c2cc3c(N[C@H](C)c4ccccc4)ncnc3[nH]2)c1 [Compound I10]	100 to 1000 nM	–
CC(Nc1ncnc2oc(-c3ccccc3)c(-c3ccccc3)c12)c1ccccc1 (stereo not shown) [Compound H3]	–	Kd (VEGFR-2): > 10000 nM
C[C@@H](Nc1ncnc2c1cc(-c1ccc(O)cc1)n2C)c1ccccc1 [Compound Q2]	100 to 1000 nM	–
CCc1ccccc1Nc1ncnc2c1cc(-c1ccc(O)cc1)n2C [Compound Q4]	100 to 1000 nM	–
COc1ccc(-c2cc3c(NCCc4ccccc4)ncnc3[nH]2)cc1 [Compound I8]	1000 to 10000 nM	Kd (ABL1): 100 to 1000 nM
COc1ccc(-c2cc3c(NCc4cccc(C)c4)ncnc3[nH]2)cc1 [Compound I4]	100 to 1000 nM	–
COc1cccc(-c2cc3c(NCc4cccc(C)c4)ncnc3[nH]2)c1 [Compound I12]	–	Kd (FLT3): > 10000 nM
COc1ccc(-c2cc3c(Nc4cccc(O)c4)ncnc3[nH]2)cc1 [Compound S6]	> 10000 nM	–
COc1ccc(-c2cc3c(Nc4ccc(F)cc4)ncnc3[nH]2)cc1 [Compound S9]	100 to 1000 nM	–
C[C@H](Nc1ncnc2[nH]c(-c3ccc(O)cc3)cc12)c1ccccc1 [Compound I9]	–	Kd (ABL1): 1000 to 10000 nM
COC(=O)c1cccc(Nc2ncnc3[nH]c(-c4cccc(OC)c4)cc23)c1 [Compound S15]	1000 to 10000 nM	–
COc1ccc(-c2cc3c(Nc4cccc(C)c4)ncnc3[nH]2)cc1 [Compound S10]	100 to 1000 nM	IC50 (MV4,11 cells [1]): < 100 nM; activity in the FLT-3 cell assay, (MV 4,11) cell proliferation assay with 10% serum, "CS0005" (MV4,11 cells [2]): ++ (a Kd of 1,000 nM to 10,000 nM)
